This is an account of results in patent publication US9765092B2, “Tricyclic piperidine compounds” (ACTELION PHARMACEUTICALS LTD, priority 2013, dated 2017).

pIC50: −log10 of the molar value.

human TPH1, sequence (P17752 whole entry): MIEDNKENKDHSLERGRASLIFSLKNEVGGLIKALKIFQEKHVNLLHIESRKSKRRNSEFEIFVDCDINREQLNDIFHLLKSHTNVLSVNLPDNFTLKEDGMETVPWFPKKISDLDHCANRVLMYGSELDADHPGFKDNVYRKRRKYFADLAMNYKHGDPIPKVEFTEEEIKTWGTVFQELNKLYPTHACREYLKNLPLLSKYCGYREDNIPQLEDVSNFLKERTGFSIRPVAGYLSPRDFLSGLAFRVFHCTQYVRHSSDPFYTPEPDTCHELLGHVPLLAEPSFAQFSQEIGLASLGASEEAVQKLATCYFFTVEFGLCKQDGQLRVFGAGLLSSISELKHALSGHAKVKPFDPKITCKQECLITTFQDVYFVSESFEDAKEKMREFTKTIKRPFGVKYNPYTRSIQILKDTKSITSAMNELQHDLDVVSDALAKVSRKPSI

The first test concerns the target human TPH1 (Homo sapiens (Human), UniProt P17752). In words: Biochemical in vitro assay using fluorescence readout (TPH1 inhibition). The conditions noted are these: full length human TPH1, 40 μM L-tryptophan, 15° C., 60 minutes, fluorescence at 540 nm; mean if determined several times.
On to `Cc1nn2c3c(nc2s1)CCN(C(=O)COc1ccc(N2CCOCC2)nc1Cl)C3c1cnc(N(C)C)s1` (stereo not shown) [Example 1.22.1, 2-((2-Chloro-6-morpholinopyridin-3-yl)oxy)-1-(5-(2-(dimethylamino)-thiazol-5-yl)-2-methyl-7,8-dihydro[1,3,4]thiadiazolo[2′,3′:2,3]imidazo[4,5-c]pyridin-6(5H)-yl)ethanone], for which the pIC50 – broadly, −log10 of the IC50, conventionally taken in molar units – was 8.15.

The same test, now with this note: human TPH1, fluorescence readout.
As for `Cc1ccc(OCC(=O)N2CCc3nc4sccn4c3C2c2nc3ccccc3s2)cc1` (stereo not shown) [Example 6.12.1, 1-(5-(benzo[d]thiazol-2-yl)-7,8-dihydrothiazolo-[2′,3′:2,3]imidazo[4,5-c]pyridin-6(5H)-yl)-2-(p-tolyloxy)ethanone], the pIC50 was 7.59.

`O=C(COc1ccc(N2CCOCC2)cc1Cl)N1CC=C2N=C3SC=CN3C2[C@H]1c1ccc(Cl)cc1F` (stereo partly drawn) [Example 6.4.2, 1-((5R)-5-(4-chloro-2-fluorophenyl)-4a,5-dihydro-thiazolo[2′,3′:2,3]imidazo[4,5-c]pyridin-6(7H)-yl)-2-(2-chloro-4-morpholinophenoxy)ethanone] had a pIC50 of 8.40.

The compound `CCOC(=O)c1coc(C2c3c(nc4sc(C)nn34)CCN2C(=O)COc2ccc(N3CCOCC3)nc2Cl)n1` (stereo not shown) [Example 1.29.1, Ethyl 2-(6-(2-((2-chloro-6-morpholinopyridin-3-yl)oxy)acetyl)-2-methyl-5,6,7,8-tetrahydro-[1,3,4]thiadiazolo [2′,3′:2,3]imidazo[4,5-c]pyridin-5-yl)oxazole-4-carboxylate] showed a pIC50 of 7.70. For `Cc1nn2c3c(nc2s1)CCN(C(=O)COc1ccc(N2CCOCC2)nc1Cl)C3c1nc(-c2ccccc2)no1` (stereo not shown) [Example 1.11.3, 2-((2-chloro-6-morpholinopyridin-3-yl)oxy)-1-(2-methyl-5-(3-phenyl-1,2,4-oxadiazol-5-yl)-7,8-dihydro-[1,3,4]thiadiazolo [2′,3′:2,3]imidazo[4,5-c]pyridin-6(5H)-yl)ethanone], the pIC50 is 8.40. The compound `Cc1nn2c3c(nc2s1)CCN(C(=O)COc1ccc(N2CCOCC2)nc1Cl)C3c1cnc(N2CCOCC2)s1` (stereo not shown) [Example 1.7.2, 2-((2-chloro-6-morpholinopyridin-3-yl)oxy)-1-(2-methyl-5-(2-morpholinothiazol-5-yl)-7,8-dihydro-[1,3,4]thiadiazolo [2′,3′:2,3]imidazo[4,5-c]pyridin-6(5H)-yl)ethanone] showed a pIC50 of 7.49.

Consider `Cc1nc(C)c(C2c3c(nc4sc(C)nn34)CCN2C(=O)COc2ccc(C(=O)N(C)C3CC3)nc2Cl)s1` (stereo not shown) [Example 1.68.4, 6-chloro-N-cyclopropyl-5-(2-(5-(2,4-dimethylthiazol-5-yl)-2-methyl-7,8-dihydro-[1,3,4]thiadiazolo[2′,3′:2,3]imidazo[4,5-c]pyridin-6(5H)-yl)-2-oxoethoxy)-N-methylpicolinamide], for which the pIC50 is 7.72. Take `COc1nc(NS(C)(=O)=O)ccc1OCC(=O)N1CCc2nc3sc(C)nn3c2[C@@H]1c1ncc(C)cc1F` [Example 1.31.20, (R)-N-(5-(2-(5-(3-fluoro-5-methylpyridin-2-yl)-2-methyl-7,8-dihydro-[1,3,4]thiadiazolo[2′,3′:2,3]imidazo[4,5-c]pyridin-6(5H)-yl)-2-oxoethoxy)-6-methoxypyridin-2-yl)methanesulfonamide]: the negative-log IC50 (pIC50) is 7.11.

`Cc1nn2c3c(nc2s1)CCN(C(=O)COc1ccc(C(=O)N(C)C2CC2)nc1Cl)C3c1ccc(C2CC2)cc1F` (stereo not shown) [Example 1.6.28, 6-chloro-N-cyclopropyl-5-(2-(5-(4-cyclopropyl-2-fluoro-phenyl)-2-methyl-7,8-dihydro-[1,3,4]thiadiazolo-[2′,3′:2,3]imidazo[4,5-c]pyridin-6(5H)-yl)-2-oxoethoxy)-N-methylpicolinamide] had a pIC50 of 7.74. Same read-out and setting: with `Cc1cnc(C2c3c(nc4sc(C)nn34)CCN2C(=O)COc2ccc(NS(=O)(=O)C3CC3)nc2Cl)c(F)c1` (stereo not shown) [Example 1.31.9, N-(6-chloro-5-(2-(5-(3-fluoro-5-methylpyridin-2-yl)-2-methyl-7,8-dihydro-[1,3,4]thiadiazolo[2′,3′:2,3]imidazo[4,5-c]pyridin-6(5H)-yl)-2-oxoethoxy)pyridin-2-yl)cyclopropanesulfonamide] the figure was 7.68.
